According to US11001615B2, “Mutated tau protein fragment and use thereof” (ADEL INC., priority 2016, dated 2021):
Square brackets hold non-standard residues; d marks the D form. Ends that are not written are not given here. pT = C[C@@H](OP(=O)(O)O)[C@H](N)C(=O)O

Key:
[1] = system: Tau-P301L dementia mice; assay: ELISA using plasma: antibody production against modified tau protein fragments; assay type: in vivo; conditions: ELISA using plasma after final administration; fragment with KLH and aluminum adjuvant, IP
Description: (§1) JNPL3 mice expressing Tau-P301L mutant gene were purchased from Taconic, and back-crossed with C57bl/6 mice for five generations in the experimental animal room of the Asan Institute for Life Sciences. Then, the mice were raised under a specific pathogen free (SPE) condition. For active immunization, the mice were administered, for six months starting from three months after birth at intervals of two weeks, two weeks, four weeks, four weeks, five weeks, four weeks, and one week in this order, the four modified tau protein fragments prepared in Preparation Example 1 together with keyhole limpet hemocyanin (KLH) as a carrier and an aluminum adjuvant. At this time, administration was carried out through intraperitoneal injection (IP injection). The dementia mice which were actively immunized by administration of the K280-ac fragment were designated as Tau-P301L-K280-ac.
In order to identify whether antibodies against the four modified tau protein fragments prepared in Preparation Example 1 were produced, the respective modified tau protein fragments or the full-length tau protein was finally administered, and then ELISA was performed using plasma.

[2] = system: Tau-P301L dementia mice; assay: Water maze test; assay type: in vivo; conditions: 5th day, platform removed; ranking after K280-ac
Description: as §1
An underwater maze test was performed to evaluate a learning and memory ability of the mice. […] Specifically, the underwater maze test took a total of 5 days. The mice were trained for 4 days in a state where a platform and a visual cue for the platform location are placed.
The learning was conducted by filling a swimming pool (1.4 m in diameter, 45 cm in depth) having a platform with water (29±0.5° C.) to a depth of about 26.5 cm, and then 1.5 L of whole milk powder was added to make water cloudy so that the mice can remember the platform with the cue only. Then, the mice were adapted to freely swim for 60 seconds and allowed to rest on the platform for 1 minute. The experiment was performed over a total of 12 times with 4 sets at three different starting positions. At the end of each test, 30 seconds of break time was given. At the end of one set, 30 to 45 minutes of break time was given.
After 4 days of learning, the test was performed on the 5th day. In the experiment for evaluation, the platform was not placed, and the number of staying in the area where the platform has been placed was measured in order to identify whether the mice visit well the platform location using the cue only. The test time was set for the mice to arrive at the location where the platform had been placed within one minute. If the mice fail to arrive at the platform location within one minute, the mice were removed out of the swimming pool.

Row | Substance | antibodies against the fragment produced [1] | number of arrivals, ranking among fragments [2]
1 | VQIVYK-ac: protein fragment having the 303rd to 316th amino acid sequence section of the tau protein in which the 306th to 311th amino acids are acetylated (GGSVQIVYKPVDLS; also: residues 306-311 (VQIVYK) acetylated; listed as Homo sapiens) | not well produced | next highest increased number of arrivals
2 | pT231: protein fragment having the 226th to 236th amino acid sequence section of the tau protein in which the 231st amino acid is phosphorylated (VAVVR[pT]PPKSP) | well produced | lowest number of times to arrive at the platform
3 | Glu391: protein fragment having the 381st to 391st amino acid sequence section of the tau protein in which the C-terminus of the 391st amino acid is truncated (NAKAKTDHGAE) | well produced | next highest increased number of arrivals
